Source: patent publication US4254128A, “2-Adamantyl hydrazines and biocidal compositions thereof” (Teva Pharmaceutical Industries Ltd., priority 1977, dated 1981)
Counter-ions that a name gives are not always drawn.

Columns and labels:
[1] = system: Leptospira canicola Kipod 146; assay: Anti leptospiral activity (minimal inhibition concentration); assay type: cell-based; details: for MIC: Leptospira interrogans, KIPOD146, 240 h; for anti leptospiral activity: summary in words
Description: The tests were carried out under the following conditions:
Leptospira: Leptospira canicola Kipod 146
Inoculum: 1-10^5 cells/ml
Incubation time: 10 days, 28° C.
Evaluation: Direct count in dark field microscopy after 4,7 and 10 days.
2 Minimal+0.5% albumin (Pentex)
3 Korthof rich medium with 8% serum.
4 Korthof rich medium with 2% serum.

Pythium = assay: Antifungal activity in plants, growth on solid agar; assay type: cell-based; details: read-out: inhibiting concentration
Description: (§1) Antiplant fungal activity was tested as follows:
(§2) Inhibition of growth on solid agar mixed with various concentrations of the tested compounds.

S. rolfsii = assay: as above; assay type: cell-based; details: Agroathelia rolfsii, read-out: inhibiting concentration
Description: as §1, §2

Sclerotinia = assay: as above; assay type: cell-based; details: read-out: inhibiting concentration
Description: as §1, §2

L. tropica amastigotes = assay: Anti leishmania test, amastigotes in peritoneal exudate cells in vitro; assay type: cell-based; details: 37° C.
Description: (§3) a. amastigotes in peritoneal exudate cells in Mc Coy's medium in vitro at 37° C.
+++=clearance of all parasites in 24 hours
++=clearance of all parasites in 48 hours
+=clearance of all parasites in 72 hours
±=Partial clearance of parasites in 72 hours or more
-=No activity against parasites.

Leishmania = assay: Anti leishmania tests, summary; assay type: cell-based, L. tropica; details: summary in words
Description: as §3
b. promastigotes in Mc Coy's medium in vitro at 27° C.

MIC ([1]; Korthof + 8% serum) | MIC ([1]; minimal medium) | MIC ([1]; Korthof + 2% serum) | MIC ([1]; minimal + Pentex (0.5% albumin)) | SMILES | anti leptospiral activity [1] | MIC (Pythium) | MIC (S. rolfsii) | MIC (Sclerotinia) | Leishmania amastigote activity score (L. tropica amastigotes; 10 μg) | Leishmania amastigote activity score (L. tropica amastigotes; 100 μg) | activity against Leishmania (Leishmania)
6.25 µg/mL | 6.25 µg/mL |  |  | CN(NC1C2CC3CC(C2)CC1C3)c1cccc(C(F)(F)F)c1 (centres unmarked) [Example 29, 1-(2'-Adamantyl)-2-methyl-2-(m-trifluoromethylphenyl)hydrazine hydrochloride hemihydrate] | active | 50 µg/mL | 50 µg/mL | 50 µg/mL |  |  | 
125 µg/mL | 3.12 µg/mL | 12.5 µg/mL | 6.25 µg/mL | NNC1C2CC3CC(C2)CC1C3 (centres unmarked) [Example 18, 2-Adamantylhydrazine hydrochloride] | active | 50 µg/mL | 50 µg/mL | 50 µg/mL | ++ (clearance of all parasites in 48 hours) | +++ (clearance of all parasites in 24 hours) | active
